Values joined by “and” are separate entries in the source; they are usually repeats but may differ in a detail not shown here. Identical values can stand only once.
Key:
[1] = molecular target: PDE5A1 (Homo sapiens, UniProt O76074); assay: PDE assay for compound screening (IMAP TR-FRET kit, FAM-cGMP, fluorescence polarization); format: biochemical; details: 100 nM cGMP substrate; read-out: IC50 for PDE5
Protocol: Protocol of PDE Assay for Compound Screening
Materials: IMAPTM TR-FRET Screening Express with Progressive Binding Kit from Molecular Devices (R8160); FAM-Cyclic-3′,5′-GMP from Molecular Devices (R7507); PDE5 inhibitors.
Step 1: A dilution series of the inhibitors ranging from 300 pM to 10 μM in 1× PDE Assay Buffer are made. Subsequently, FAM-cGMP is diluted to 200 nM in 1×PDE Assay Buffer. PDE5A1 enzymes are then diluted to 0.125 ng/μl in 1×PDE Assay Buffer.
Step 2: The following components are added to a low binding black plate: a) […] of 200 nM FAM-cGMP (Final concentration will be 100 nM); b) 5 μl of the compounds (Final concentration=30 pM to 1 μM); c) 20 μl of PDE5A1 (0.125 ng/l) (Final amount=2.5 ng/reaction). The components are mixed and incubated at room temp. for 1 hour.
Step 3: A 1× reagent-binding buffer (75% 1× Binding Buffer A and 25% 1× Binding Buffer B) is then prepared followed by a Binding Solution that is prepared by diluting Binding Reagent with 1× reagent-binding Buffer (1:600). 120 μl of Binding Solution is then added to each well and the plate is incubated at room temperature for 1 hour.
Step 4: Fluorescence polarization is measured at excitation of 485 nm and emission of 520 nm in BioTek Synergy™ 2 microplate reader.

[2] = mouse, in vivo, po
Protocol: Timeline: 24 h-7 days. In the timeline, no fatal effects were observed.
Dosage: • Single dose at 500 mg/kg, i.p. • Single dose at 1000 mg/kg, i.p. • Single dose at 2000 mg/kg, p.o.

[3] = test system: APP/PS1 mice; assay: Electrophysiological analysis (BST, LTP) of slices from mice previously treated i.p.; format: in vivo, mouse
Protocol: To add depth to the analysis of the functional changes that underlie the striking effects of sildenafil on APP/PS1 mice behavioral performance, synaptic function in hippocampi from the same mice was examined. […] The drug was administered either acutely or for 1 course of 3 week treatment. […] This dose yields concentrations of 2.5 μM cGMP in the hippocampus^[…]. […] Radial-arm water-maze (RAWM) was performed for 3 weeks. Then, the animals were sacrificed for electrophysiological recordings. To decide the time of administration of sildenafil in the acute experiments, a series of studies was performed in which the inhibitor was injected i.p. at 5 min before the electric shock or at 5 min before the first acquisition trial with the radial arm water maze. […] Thus, all the behavioral experiments on the acute effects of sildenafil reported in the result section were performed with injection after the training. Animals were sacrificed by cervical dislocation followed by decapitation. Hippocampi were quickly removed. Transverse hippocampal slices (400 μm) were cut and recorded according to standard procedures^[…]. For example, following cutting hippocampal slices were transferred to a recording chamber where they were maintained at 29° C. and perfused with artificial cerebrospinal fluid (ACSF) continuously bubbled with 95% O2 and 5% CO2. […] CA1 fEPSPs were recorded by placing both the stimulating and the recording electrodes in CA1 stratum radiatum. BST was assayed either by plotting the peak amplitude of the fiber volley against the slope of the fEPSP, or by plotting the stimulus voltages against slopes of fEPSP. For LTP experiments, a 15 min baseline was recorded every min at an intensity that evokes a response 35% of the maximum evoked response. […] Responses were recorded for 2 hrs after tetanization and measured as field-excitatory-post-synaptic potential (fEPSP) slope expressed as percentage of baseline. The results were expressed as mean±Standard Error Mean (SEM).

[4] = test system: APP/PS1 mice; assay: Morris water maze and probe trial (reference memory); format: in vivo, mouse
Protocol: To investigate sildenafil effect on long-term memory, reference memory was tested with a Morris water maze task that is known to require hippocampal function^A20 and is impaired after 6 months of age in the APP/PS1 mice^A12. Vehicle-treated transgenic mice needed more time to find the hidden platform after six sessions compared to WT littermates (FIG. 3C). […] This task is performed after the sixth hidden-platform session. The platform is removed from the water and the animals are allowed to search for 60 seconds. A mouse, knowing that the platform was in a certain position, will trawl repeatedly over that position looking for it. […] The amount of time spent in each quadrant of the maze can be used to evaluate the spatial bias of an animal's search pattern. Vehicle-treated WT mice spent more time in the target quadrant (TQ), where the platform had been located during training than in other quadrants, than in the adjacent quadrant to the right (AR), in the adjacent quadrant to the left (AL), or in the opposite quadrant (OQ) (FIG. 3D). Also, sildenafil improved the performance of the APP/PS1 mice which searched more in the quadrant where the platform had been located during training than in other quadrants (FIG. 3D). […] Sildenafil-treated WT mice remembered where the platform was the previous days and spent about the same time as vehicle-treated WT littermates. […] Behavioral Studies-Reference Memory: The task studied with the Morris water maze has been previously described^12. Briefly, mice were trained in 2 daily sessions (4 hours apart), each consisting of 3 trials (1 minute each), for 3 days. Time required to reach the hidden platform was recorded. To test the retention of the spatial memory, 4 probe trials were performed after the training with the platform […]. The maze was divided into 4 quadrants. The percent of time spent in the quadrant that previously contained the platform was recorded and analyzed with a video tracking system ([…] Image).

[5] = test system: CREB phosphorylation; format: cell-based, mouse
[6] = test system: J20 mice; assay: Fear conditioning and RAWM in J20 mice; format: in vivo, mouse
[7] = rodents; cited from earlier work
[8] = test system: cGMP; details: sildenafil 3 mg/kg; cited from earlier work
[9] = 3 mg/kg, treated at 3 months, tested at 6-8 months
[10] = 6-8 month-old APP/PS1, 3 mg/Kg i.p. for 3 weeks at 3 months of age
[11] = 6-8 month-old WT, 3 mg/Kg i.p. for 3 weeks at 3 months of age
[12] = treated at 3 months, tested at 6-8 months, APP/PS1
[13] = APP/PS1, 3 mg/Kg i.p. for 3 weeks at 3 months
[14] = APP/PS1 previously treated with sildenafil
[15] = WT previously treated with sildenafil
[16] = WT, 3 mg/Kg i.p. for 3 weeks at 3 months
[17] = treated at 3 months, tested at 6-8 months

**Q.** Which results are given for COc1ccc(CNc2c(CO)cnc3c(C4CC4)cc(C#N)cc23)cc1Cl [YF012403, 4-(3-chloro-4-methoxybenzylamino)-8-cyclopropyl-3-(hydroxymethyl)-quinoline-6-carbonitrile]?
**A.** IC50 [1]: 1.2 nM and 0.27 nM; safe dose in acute toxicity test [2]: up to 2 g/kg

**Q.** With CCCc1nn(C)c2c(=O)[nH]c(-c3cc(S(=O)(=O)N4CCN(C)CC4)ccc3OCC)nc12 [sildenafil, 5-[2-ethoxy-5-(4-methyl-1-piperazinylsulphonyl)phenyl]-1-methyl-3-n-propyl-1,6-dihydro-7H-pyrazolo[4,3-d]pyrimidin-7-one] as the compound, how does the “minimum time needed for a positive effect on BST” value [3, 9] read?
**A.** 2 weeks

**Q.** What about the “minimum time needed for a positive effect on LTP” value [3, 9] of the same compound?
**A.** 2 weeks

**Q.** And the “BST, fEPSP slope” value [3, 10]?
**A.** 1.03±0.12 V/sec.

**Q.** And the “BST, fEPSP slope as % of vehicle-treated APP/PS1 mice” value [3, 10]?
**A.** ~160%

**Q.** What about the “LTP as % of sildenafil-treated WT mice” value [3, 10] of the same compound?
**A.** ~100%

**Q.** What about the “LTP, % of baseline at 120 min” value [3, 10] of the same compound?
**A.** 233.81±30.47%

**Q.** What about the “BST, fEPSP slope” value [3, 11] of the same compound?
**A.** 1.01±0.12 V/sec.

**Q.** And the “BST, slope of input-output curve as % of vehicle-treated WT mice” value [3, 11]?
**A.** ~94%

**Q.** What about the “LTP as % of vehicle-treated mice” value [3, 11] of the same compound?
**A.** ~112%

**Q.** What about the “LTP, % of baseline” value [3, 11] of the same compound?
**A.** 234.67±17.19%

**Q.** And the “minimum concentration needed to improve BST” value [3, 12]?
**A.** 3 mg/kg

**Q.** And the “minimum concentration needed to improve LTP” value [3, 12]?
**A.** 3 mg/kg

**Q.** What about the “minimum time needed to improve performance with the MWM” value ([4]; 3 mg/kg) of the same compound?
**A.** 2 weeks

**Q.** What about the “minimum time needed to improve performance with the probe trial” value ([4]; 3 mg/kg) of the same compound?
**A.** 2 weeks

**Q.** What about the “Morris water maze, time to find the hidden platform after six sessions” value [4, 13] of the same compound?
**A.** 32.92 ± 3.50 s

**Q.** What about the “time to platform as % of vehicle-treated WT mice” value [4, 13] of the same compound?
**A.** ~114%

**Q.** What about the “probe test, % of time spent in target quadrant (TQ)” value [4, 14] of the same compound?
**A.** 32.25±0.58%

**Q.** And the “time in TQ as % of vehicle-treated WT littermates” value [4, 14]?
**A.** ~97%

**Q.** What about the “probe test, % of time spent in target quadrant (TQ)” value [4, 15] of the same compound?
**A.** 33.35±1.38%

**Q.** And the “time in TQ as % of vehicle-treated WT littermates” value [4, 15]?
**A.** ~100%

**Q.** What about the “Morris water maze, time to find the hidden platform” value [4, 16] of the same compound?
**A.** 25.64 ± 3.16 s

**Q.** What about the “time to platform as % of vehicle-treated WT mice” value [4, 16] of the same compound?
**A.** ~89%

**Q.** What about the “minimum concentration needed to improve performance with the MWM” value [4, 17] of the same compound?
**A.** 3 mg/kg

**Q.** And the “minimum concentration needed to improve performance with the probe trial” value [4, 17]?
**A.** 3 mg/kg

**Q.** What about the “phospho-CREB immunofluorescence after tetanus, % of control” value [5] of the same compound?
**A.** 162.58±17.09% and 163.54±13.52% and 163.6±15.14% and 151.73±12.24%

**Q.** What about the “effect on contextual learning in words” value ([6]; 3 mg/kg i.p. immediately after training) of the same compound?
**A.** improved contextual learning

**Q.** And the “effect on spatial working memory in words” value ([6]; daily injection after training for 3 weeks)?
**A.** improved spatial working memory

**Q.** What about the in vivo half-life [7] of the same compound?
**A.** 24 min

**Q.** What about the “cGMP concentration in the hippocampus” value [8] of the same compound?
**A.** ~2.5 µM

From US9974782B2, “Phosphodiesterase inhibitors and uses thereof” (THE TRUSTEES OF COLUMBIA UNIVERSITY IN THE CITY OF NEW YORK, priority 2008, dated 2018)
